{"source": "patent US12729221B2", "about": "“Anti-inflammatory peptide and use thereof” (MITO QUEST CO., LTD., priority 2020, dated 2026)", "key": {"interferon-beta (IFN-b)": {"tested_on": "interferon-beta (IFN-b)", "experiment": "polyIC-induced IFN-b expression in MLE-12 cells, ELISA", "assay_type": "cell-based, mouse", "conditions": "5 mg/ml polyIC, 16 hours, 25 mM or 2 mM peptide, FIG. 9A", "experimental": "Specifically, polyinosinic:polycytidylic acid (polyIC), which is a synthetic ribonucleic acid known to be associated with viral infection among the PAMPs and promotes the production of interferon and is analogous to an RNA virus gene, was used to induce a viral infection response. First, a serum-free cell culture medium containing 5 mg/ml polyIC and MQP-15, MQP-23, MQP-31, MQP-37, MQP-Y9 or MQP-T234 was treated with 1×10^5 cells of a mouse lung epithelial cell line (MLE-12) for 16 hours. Then, the supernatant was obtained and the expression level of interferon-beta (IFN-b) was checked by enzyme-linked immunosorbent assay (ELISA).\n(§1) Specifically, LPS and ATP were used to induce an inflammasome response caused by bacterial infection, and polyIC was used to induce an inflammatory response caused by viral infection. First, 1 mg/ml LPS and 5 mM or 1 mM novel alanine-substituted peptide were mixed in a serum-free cell culture medium, followed by treatment with 1×10^5 cells of IC21. Thereafter, 5 mM ATP and 5 mM or 1 mM novel alanine-substituted peptide were mixed in a serum-free cell culture medium and treated for 30 minutes. Then, the supernatant was obtained and the expression level of IL-1b was checked by ELISA. Also, 5 mg/ml polyIC and 25 mM or 2 mM novel alanine-substituted peptide were mixed in a serum-free cell culture medium, followed by treatment with 1×10^5 cells of MLE-12 for 16 hours. Thereafter, the supernatant was obtained and the expression level of IFN-b was checked by ELISA.\nas §1, with “2” for “5 mM or 1”, “amino acid-substituted” for “alanine-substituted”, “and” for “and 25 mM or”\nSpecifically, polyIC was used to induce a viral infection response. First, a serum-free cell culture medium containing 5 mg/ml polyIC and MQP-37, MQP-37A6, MQP-37D6W, MQP-37D6Y, MQP-37D6H, MQP-37D6K, MQP-37D6R or MQP-37D6V was treated with 1×10^5 cells of MLE-12 for 16 hours. Then, the supernatant was obtained and the expression level of IFN-b was checked by ELISA."}, "recombinant MAVS protein": {"target": "recombinant MAVS protein (Homo sapiens, UniProt Q7Z434)", "sequence (Q7Z434 whole entry, species assumed)": "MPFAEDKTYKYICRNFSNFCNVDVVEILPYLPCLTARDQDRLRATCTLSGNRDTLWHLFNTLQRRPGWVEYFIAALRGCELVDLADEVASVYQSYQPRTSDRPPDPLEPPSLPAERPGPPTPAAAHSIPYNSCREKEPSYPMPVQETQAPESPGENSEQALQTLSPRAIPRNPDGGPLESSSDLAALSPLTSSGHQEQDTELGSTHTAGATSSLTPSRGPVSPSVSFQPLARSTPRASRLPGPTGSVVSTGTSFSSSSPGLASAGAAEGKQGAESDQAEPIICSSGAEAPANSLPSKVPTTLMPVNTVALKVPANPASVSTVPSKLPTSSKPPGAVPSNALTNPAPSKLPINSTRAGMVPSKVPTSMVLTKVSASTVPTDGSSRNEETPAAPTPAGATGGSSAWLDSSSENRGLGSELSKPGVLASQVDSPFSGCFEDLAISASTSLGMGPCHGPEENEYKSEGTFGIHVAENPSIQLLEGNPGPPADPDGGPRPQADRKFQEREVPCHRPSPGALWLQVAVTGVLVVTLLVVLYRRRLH", "experiment": "Binding of fluorescence-labeled peptides to plate-coated recombinant MAVS protein", "experimental": "Specifically, recombinant MAVS protein and fluorescence-labeled peptides MQP-37 and MQP-37A6 were used to check the binding affinity to the MAVS protein. First, 250 ng of recombinant MAVS protein was coated on a 96-well plate for ELISA, followed by blocking with 1% BSA/PBS solution. Thereafter, fluorescence-labeled peptides of various concentrations were added thereto and reacted for 2 hours, and the amount of peptide bound to the MAVS protein was checked by fluorescence measurement."}, "IL-1b": {"tested_on": "IL-1b", "experiment": "LPS/ATP-induced IL-1b expression (inflammasome response) in IC21, ELISA", "assay_type": "cell-based, mouse", "conditions": "1 mg/ml LPS, 5 mM ATP 30 minutes", "experimental": "as §1\nas §1, with “2” for “5 mM or 1”, “amino acid-substituted” for “alanine-substituted”, “and” for “and 25 mM or”\nSpecifically, LPS was used to induce an inflammatory response caused by bacterial infection. First, MQP-37 or MQP-37A6 was added to a serum-free cell culture medium containing 0.1 mg/ml LPS, followed by treatment with 1×10^5 cells of IC21 for 6 hours. Then, the supernatant was obtained and the expression level of IL-6 was checked by ELISA. Also, the Western blot was performed and the phosphorylation of NF-κB was checked to identify the mechanism of immune activation response. Thereafter, LPS and ATP were used to induce an inflammasome response caused by bacterial infection, LPS and ATP were used. First, 1 mg/ml LPS and L- or D-MQP-37 and MQP-37A6 were mixed in a serum-free cell culture medium and treated with 1×10^5 cells of IC21. Then, 5 mM ATP and MQP-37 or MQP-37A6 were mixed in a serum-free cell culture medium and treated for 30 minutes. Thereafter, the supernatant was obtained and the expression level of IL-1b was checked by ELISA."}, "NF-κB": {"tested_on": "NF-κB", "experiment": "LPS-induced phosphorylation of NF-kB in IC21, Western blot", "assay_type": "cell-based, mouse", "conditions": "LPS, Western blot, FIGS. 12B-D to 12B-F", "description": "Specifically, LPS was used to induce an immune activation response caused by bacterial infection, and the phosphorylation of nuclear factor kappa-light-chain-enhancer of activated B cells (NF-kB) was checked to identify the mechanism of the immune activation response. […] Thereafter, the cells were washed with a PBS solution and then lysed with a RIPA buffer, and the supernatant was separated. In order to measure the change in the phosphorylation amount of NF-κB protein with the separated supernatant, the Western blot was performed as in Example 2."}, "[1]": {"tested_on": "mouse sepsis models induced by LPS", "experiment": "Mouse sepsis model induced by LPS, survival", "assay_type": "in vivo, C57BL/6 wild-type mice", "experimental": "Specifically, 2 mg/kg and 5 mg/kg LPS were administered into the abdominal cavity of 7-week-old C57BL/6 wild-type mice every 6 hours, and 1 hour later, 0.4 mg/kg, 2 mg/kg and 10 mg/kg novel peptides were additionally administered into the abdominal cavity of the mice. Then, the survival of the mice was checked for 4 days."}, "interleukin-6 (IL-6)": {"tested_on": "interleukin-6 (IL-6)", "experiment": "LPS-induced IL-6 expression in IC21, ELISA", "assay_type": "cell-based, mouse", "conditions": "0.1 mg/ml LPS, 6 hours, FIG. 12A-A", "protocol": "Specifically, LPS was used to induce an inflammatory response caused by bacterial infection. First, MQP-15, MQP-23, MQP-31, MQP-37 or MQP-Y9 was added to a serum-free cell culture medium containing 0.1 mg/ml LPS, followed by treatment with 1×10^5 cells of IC21 for 6 hours. Then, the supernatant was obtained and the expression levels of interleukin-6 (IL-6) and a tumor necrosis factor-alpha (TNF-a) were checked by ELISA."}}, "note": "Where no end group is shown, it is not given here."}
{"sequence": "SLVLAAARW [MQP-37A6]", "values": [{"measurement": "inflammatory response caused by viral infection (IFN-b), compared to original MQP-37", "setting": "interferon-beta (IFN-b)", "value": "significantly improved"}, {"measurement": "Kd", "setting": "recombinant MAVS protein", "value": "~750", "unit": "µM"}, {"measurement": "inflammasome response caused by bacterial infection (IL-1b), sixth amino acid of MQP-37 substituted", "setting": "IL-1b; 2 mM peptide, FIG. 10A-B", "value": "most effectively"}, {"measurement": "inflammasome response caused by bacterial infection (IL-1b), compared to original MQP-37", "setting": "IL-1b; 5 mM or 1 mM peptide, FIG. 9A", "value": "significantly improved"}, {"measurement": "inflammasome response caused by bacterial infection (IL-1b), compared with MQP-37", "setting": "IL-1b; FIGS. 12A-B and 12A-C", "value": "more than the original peptide MQP-37"}, {"measurement": "immune activation response (NF-κB phosphorylation), compared with MQP-37", "setting": "NF-κB", "value": "more than the original peptide MQP-37"}, {"measurement": "treating sepsis", "setting": "[1]", "value": "effective"}, {"measurement": "inflammatory response caused by bacterial infection (IL-6), compared with MQP-37", "setting": "interleukin-6 (IL-6)", "value": "more than the original peptide MQP-37"}]}
